From patent publication US8318801B2, “Cinnamic compounds and derivatives therefrom for the inhibition of histone deacetylase” (Naturewise Biotech & Medicals Corporation, priority 2009, dated 2012)
Entries after “also recorded” stand apart in the source; their conditions may differ.

How the values were obtained:
tumor cell lines = conditions: cited from earlier work
[1] = system: Human breast cancer MCF-7 cells; assay: Cell cycle analysis by flow cytometry; type: cell-based; conditions: MCF-7 cells (FIG. 10(c) to (e))
[2] = system: human breast cancer MDA-MB-231 cells; assay: Inhibition of cancer cell growth and change of morphology; type: cell-based; conditions: for inhibition of MDA-MB-231 cells: MDA-MB-231 cells (FIG. 9); for change of cell morphology / inhibition of cell growth: MDA-MB-231 cells; for change of cell morphology: 72 hours (FIG. 6(a)); for inhibition of cell growth: various concentrations, 72 hrs (FIG. 6(a))
Experimental: Their results were counted by a trypan blue exclusion assay (see FIG. 9(f)).
(§1) Five cancer cell lines, Rat C6 giloma cells, Human breast cancer MCF-7 cells, Human glioma Hs683 cells, Human glioblastoma 05-MG cells, and Human lung cancer A549 cells, were cultured in Dulbecco's modified Eagle's medium (DMEM; Gibco) containing 10% fetal bovine serum (FBS) and 1% penicillin/streptomycin, and were kept at 37° C. in a humidified atmosphere of 95% air and 5% CO2. Human breast cancer. MDA-MB-231 cells were cultured in L-15 medium (Gibco) containing 10% fetal bovine serum (FBS), 1% penicillin/streptomycin, and 2 mM glutamine, and were maintained at 37° C. in a humidified atmosphere of 95% air and 0% CO2. For these experiments, the cells were seeded in 6-well plates or a 60-mm dish. After 24 hours, the cells were treated with different concentrations of the various compounds. […] Human glioblastoma 05-MG cells were treated with NBM-C-BCX-OS01 (1.0, 2.0, 4.0 μg/mL) and NBM-C-BMX-OS01 (1.0, 2.0, 4.0 μg/mL) for 72 hours (see FIG. 5(e)). […] The results were counted by a trypan blue exclusion assay (see FIG. 6(b)).

[3] = system: Human lung cancer A549 cells; assay: Cell cycle analysis by flow cytometry (propidium iodide); type: cell-based; conditions: A549 cells (FIG. 10(a), (b))
Experimental: Human lung cancer A549 cells, Human glioma Hs683 cells and Human glioblastoma 05-MG cells were seeded 1×10^6 cells in a 100-mm dish. After 24 hours of incubation in DMEM+10% BSA, Human lung cancer A549 cells were treated with NBM-HB-OS01 (2.5, 5.0, 7.5, 10.0 μg/mL) for 24 hours and were treated with NBM-C-BCX-OS01 (2.5, 5.0, 7.5 μg/mL) and NBM-C-BMX-OS01 (2.5, 5, 7.5 μg/mL) for 72 hours. Human glioblastoma 05-MG cells were treated with NBM-C-BCX-OS01 (1.0, 2.0, 4.0 μg/mL) and NBM-C-BMX-OS01 (1.0, 2.0, 4.0 μg/mL) for 72 hours. Human glioma Hs683 cells were treated with NBM-C-BCX-OS01 (1.0, 2.0, 4.0 μg/mL). For cell cycle analysis, cells were fixed in 80% ethanol for 1 hour (or overnight) at −20° C. and then incubated with 2 μg/mL RNase A for 30 minutes at 37° C. Cells were stained with propidium iodide ([…] PI) in PBS and analyzed using a Becton Dickinson flow cytometer, BD FACScan and CellQuest acquisition and analysis programs. […] Human glioma Hs683 cells were treated with NBM-C-BCX-OS01 (1.0, 2.0, 4.0 μg/mL) for 72 hours.

Human glioma Hs683 cells = assay: Inhibition of cancer cell growth; type: cell-based; conditions: Hs683 cells, 1.0, 2.0 and 4.0 μg/mL, 72 hours (FIG. 8)
Experimental: Their results were counted by a trypan blue exclusion assay (see FIG. 8(e)).
as §1

Rat C6 glioma cells = assay: Inhibition of cancer cell growth and change of morphology; type: cell-based; conditions: Rat C6 glioma cells
Experimental: (§2) Three cancer cell lines, Rat C6 giloma cells, Human breast cancer MCF-7 cells, and Human lung cancer A549 cells, were cultured in Dulbecco's modified Eagle's medium (DMEM; Gibco) containing 10% fetal bovine serum (FBS) and 1% penicillin/streptomycin. All three cell lines were maintained at 37° C. in a humidified atmosphere of 95% air and 5% CO2. For the experiments, the cells were seeded in 6-well plates. After 24 hours, the cells were treated with different concentrations of the various compounds.
as §1

[4] = system: acetyl-Histone H3, acetyl-Histone H4, acetyl-tubulin, p21, CTPS, Gelsolin, Hsp90, acetyl-Hsp90 in Human glioma Hs683 cells; assay: Immunoblotting of histones and HDAC associated proteins; type: cell-based; conditions: Hs683 cells, 1.0, 2.0, 4.0 μg/mL
Experimental: Human glioma Hs683 cells were seeded at 5×10^5 cells in a 60-mm dish or 1×10^6 cells in a 100-mm dish. After 24 hours, Human glioma Hs683 cells were treated with different doses of NBM-C-BCX-OS01, NBM-C-BMX-OS01 (1.0, 2.0, 4.0 μg/mL), and vorinostat (SAHA, 5 μM) for 72 hours. Lysates of Hs683 cells were prepared for the immunoblotting of acetyl-Histone H3 (Cell Signaling Technology, Inc.), acetyl-Histone H4 (Upstate), acetyl-tubulin (Sigma Chemical Co.), p21 (BD Pharmingen Technology, Inc.), CTPS (ABNOVA TAIWAN Corporation), Gelsolin (Sigma Chemical Co.), Hsp90 (Cell Signaling Technology, Inc.), acetyl-Hsp90 (ROCKLAND, Inc.) and actin (Sigma Chemical Co.). Proteins were detected by chemiluminescence (ECL, Amersham). […] SAHA was used as a positive control and β-actin as an internal control (see FIG. 7(b)).

[5] = system: Human glioblastoma 05-MG cells; assay: Inhibition of cancer cell growth; type: cell-based; conditions: 05-MG cells, 1.0, 2.0, 4.0 μg/mL, 72 hrs (FIG. 5(e))
Experimental: as §1

[6] = system: Human lung cancer A549 cells; assay: Inhibition of cancer cell growth; type: cell-based; conditions: 72 hrs, NBM-C-BX-OS01 7.5, others 2.5, 5.0, 7.5 μg/mL (FIG. 5(b))
Experimental: as §2, §1

Cc1[nH]c2ccccc2c1CCNCc1ccc(/C=C/C(=O)NO)cc1 [LBH589]
growth inhibition and regression by triggering apoptosis (tumor cell lines): induces growth inhibition and regression

COc1ccc(/C=C\C(=O)NO)c(OCc2ccc(Br)cc2)c1CC=C(C)C [NBM-C-BBX-OS01, (Z)-2-(4-Bromobenzoxy)-3-prenyl-4-methoxy-N-hydroxycinamide]
cell cycle arrest phase [1]: arrested the human breast cancer MCF-7 cells on the S and G2/M phases
inhibition of MDA-MB-231 cells [2]: inhibition of human breast cancer MDA-MB-231 cells
cell cycle arrest phase [3]: arrested the human lung cancer A549 cells on the S and G2/M phases
inhibition of cell growth (Human glioma Hs683 cells): inhibition of cell growth

COc1ccc(/C=C/C(=O)Nc2ccccc2N)c(OCc2ccc(Cl)cc2)c1CC=C(C)C [NBM-C-BCA-OS01, (E)-2-(4-Chlorobenzoxy)-3-prenyl-4-methoxy-N-(2-aminophenyl) cinamide]
inhibition of cell growth (Rat C6 glioma cells; 7.5 μg/mL, 48 hrs (FIG. 4)): inhibited the Rat C6 glioma cell growth
inhibition of cell growth (Rat C6 glioma cells; 7.5 μg/mL, 48 hrs (FIG. 4), listed as NBM-C-BA-OS01 (17d)): inhibited the Rat C6 glioma cells growth

COc1ccc(/C=C\C(=O)NO)c(OCc2ccc(F)cc2)c1CC=C(C)C [NBM-C-BFX-OS01, (Z)-2-(4-Fluorobenzoxy)-3-prenyl-4-methoxy-N-hydroxycinamide]
change of cell morphology [2]: changed the morphology of the cells
inhibition of cell growth [2]: inhibition of the cell growth of human breast cancer MDA-MB-231 cells was observed; also recorded: inhibited the growth

COc1ccc(COc2c(/C=C/C(=O)Nc3ccccc3N)ccc(OC)c2CC=C(C)C)cc1 [NBM-C-BMA-OS01, (E)-2-(4-Methoxyhenzoxy)-3-prenyl-4-methoxy-N-(2-aminophenyl) cinamide]
inhibition of cell growth (Rat C6 glioma cells; 7.5 μg/mL, 48 hrs (FIG. 4)): inhibited the Rat C6 glioma cell growth

COc1ccc(COc2c(/C=C\C(=O)NO)ccc(OC)c2CC=C(C)C)cc1 [NBM-C-BMX-OS01, (Z)-2-(4-Methoxyhenzoxy)-3-prenyl-4-methoxy-N-hydroxycinamide]
change of cell morphology [2]: changed the morphology of the cells
inhibition of cell growth [2]: inhibition of the cell growth of human breast cancer MDA-MB-231 cells was observed; also recorded: inhibited the growth
CTPS protein level ([4]; 72 hrs (FIG. 7(a))): decreased in a dose-dependent manner
Hsp90 protein level ([4]; 72 hrs (FIG. 7(a))): decreased in a dose-dependent manner
induction (increase) of acetylated Hsp90 protein ([4]; 72 hrs (FIG. 7(a))): detected in a dose-dependent manner; also recorded: observed in a dose-dependent manner
induction (increase) of gelsolin protein ([4]; 72 hrs (FIG. 7(a))): detected in a dose-dependent manner; also recorded: observed in a dose-dependent manner
expression of acetylated Histone H3 ([4]; 72 hrs (FIG. 7(b))): significantly increased in a dose-dependent manner; also recorded: induced in a dose-dependent manner
expression of acetylated Histone H4 ([4]; 72 hrs (FIG. 7(b))): significantly increased in a dose-dependent manner; also recorded: induced in a dose-dependent manner
expression of acetylated tubulin ([4]; 72 hrs (FIG. 7(b))): significantly increased in a dose-dependent manner; also recorded: induced in a dose-dependent manner
expression of p21 ([4]; 72 hrs (FIG. 7(b))): significantly increased in a dose-dependent manner; also recorded: induced in a dose-dependent manner
cell growth inhibition [5]: Cell growth inhibition was observed
inhibition of cell growth (Rat C6 glioma cells; 24 hrs, NBM-C-BA-OS01 5 μg/mL, others 2.5, 5.0 μg/mL (FIG. 5(a))): inhibited the cell growth
inhibition of cell growth, similar to dose-dependent A549 result (Rat C6 glioma cells; various concentrations, 24 hrs (FIG. 5(c))): the results were similar
cell growth inhibition [6]: induced A549 cells growth inhibition in a dose-dependent manner; also recorded: induced A549 cell growth inhibition in dose-dependent amounts

CC(C)=CCOc1c(OCc2ccc(Cl)cc2)c(/C=C\C(=O)NO)cc2ccoc12 [NBM-I-BCX-OS01]
cell cycle arrest phase [1]: arrested the human breast cancer MCF-7 cells on the S and G2/M phases
inhibition of MDA-MB-231 cells [2]: inhibition of human breast cancer MDA-MB-231 cells
cell cycle arrest phase [3]: arrested the human lung cancer A549 cells on the S and G2/M phases
inhibition of cell growth (Human glioma Hs683 cells): inhibition of cell growth

COc1ccc(/C=C/C(=O)NO)c(OCc2ccc(Br)cc2)c1CC=C(C)C [NBM-T-BBX-OS01, (E)-2-(4-Bromobenzoxy)-3-prenyl-4-methoxy-N-hydroxy cinamide]
cell cycle arrest phase [1]: arrested the human breast cancer MCF-7 cells on the S and G2/M phases
inhibition of MDA-MB-231 cells [2]: inhibition of human breast cancer MDA-MB-231 cells
cell cycle arrest phase [3]: arrested the human lung cancer A549 cells on the S and G2/M phases
inhibition of cell growth (Human glioma Hs683 cells): inhibition of cell growth

COc1ccc(/C=C/C(=O)NO)c(OCc2ccc(Cl)cc2)c1CC=C(C)C [NBM-T-BCX-OS01, (E)-2-(4-Chlorobenzoxy)-3-prenyl-4-methoxy-N-hydroxy cinamide]
cell cycle arrest phase [1]: arrested the human breast cancer MCF-7 cells on the S and G2/M phases
inhibition of MDA-MB-231 cells [2]: inhibition of human breast cancer MDA-MB-231 cells
inhibition of cell growth (Human glioma Hs683 cells): inhibition of cell growth

COc1ccc(COc2c(/C=C/C(=O)NO)ccc(OC)c2CC=C(C)C)cc1 [NBM-T-BMX-OS01, (E)-2-(4-Methoxyhenzoxy)-3-prenyl-4-methoxy-N-hydroxy cinamide]
cell cycle arrest phase [1]: arrested the human breast cancer MCF-7 cells on the S and G2/M phases
inhibition of MDA-MB-231 cells [2]: inhibition of human breast cancer MDA-MB-231 cells
cell cycle arrest phase [3]: arrested the human lung cancer A549 cells on the S and G2/M phases
inhibition of cell growth (Human glioma Hs683 cells): inhibition of cell growth
